Experimental data published in patent US20230279002A1, “Polymorphs of Crystalline Forms of 3,10-dimethoxy-5,8,13,13a-tetrahydro-6H-isoquinolino[3,2-a]isoquinolin-9-yl 3-fluorobenzenesulfonate and Salts Thereof” (CVI Pharmaceuticals Limited, priority 2020, published 2023).
≈ marks a conversion by molar mass, not a printed value.

What was measured:
Type in all cases: physicochemical
[1] = Crystallization from hot saturated solutions, solid form by XRPD; conditions: for Solid form: EtOH, XRPD
Protocol: Crystallization from hot saturated solutions: About 100 mg 2a was dissolved with minimal amount of solvent at about 60° C. The solution was filtrated and separated into two portions. One portion was put in ice bath and agitated till the end of the experiment; the other portion was cooled down naturally. The precipitates were collected on a filter, dried and analyzed by XRPD.

[2] = Precipitation by addition of anti-solvent, solid form by XRPD
Protocol: The precipitates were collected and analyzed by XRPD.
2a was dissolved in ACN or MeOH, and water or heptane was added as anti-solvent. […] The XRPD pattern of compound 2a (bottom) and compound 2a dissolved in ACN then precipitated with heptane (top) is shown in FIG. 6. The XRPD pattern of compound 2a (bottom trace) and compound 2a dissolved in MeOH then precipitated with heptane (top trace) or water (center trace) is shown in FIG. 7.

[3] = Apparent solubility in organic solvents (visual); conditions: for solubility: thermodynamic from solid
Protocol: Solubility: 2a substance was equilibrated with organic solvents to visually test the apparent solubility. The experiment was terminated once or if the target of 20 mg/mL was achieved.

[4] = Solvent evaporation, solid form by XRPD
Protocol: Solvent evaporation: About 20 mg 2a was dissolved in organic solvents. The solution was filtrated and dried in the air. The obtained solid part from the evaporation process was analyzed by XRPD.

[5] = Equilibration with solvent at 25° C. and 50° C. (slurry), solid form by XRPD
Protocol: Equilibration with solvent at 25° C. and 50° C.: About 50 mg of 2a was equilibrated with 1 ml solvents at 25° C. and 50° C. After stirring for 1 day and 7 days, the suspensions were centrifuged. The solid part was collected and analyzed by XRPD, then dried in the air for 10 min and analyzed by XRPD. After equilibrium with solvent at 25° C. and 50° C. for 1 and 7 days, the crystal form was not changed. […] The XRPD spectra of the solid equilibrated with each solvent listed in Table 12, at 25° C. and 50° C., are shown overlaid that of undisturbed 2a in FIG. 8 through FIG. 14.

With `COc1ccc2c(c1)CCN1Cc3c(ccc(OC)c3OS(=O)(=O)c3cccc(F)c3)C[C@H]21` [Compound 2a] the Solid form ([1]; quick (ice bath)) was “partially crystalline”, the Solid form ([1]; slow (cooled down naturally)) was “no crystal, failed” and the “Solid form after crystallization from hot saturated solutions” value ([1]; dissolved at about 60° C., cooled) was “partially crystalline”. For the same molecule, the “Crystal form after precipitation by anti-solvent” value ([2]; heptane as anti-solvent (ACN or MeOH solution)) was “not changed”, the Solid form ([2]; solvent ACN, anti-solvent Heptane (6 volumes)) was “Crystal, no change” and the Solid form ([2]; solvent ACN, anti-solvent Water (6 volumes)) was “No crystal, failed”. The Solid form ([2]; solvent MeOH, anti-solvent Heptane (3 volumes)) was “Crystal, no change”, the Solid form ([2]; solvent MeOH, anti-solvent Water (2 volumes)) was “Amorphous” and the “Crystal form after precipitation by anti-solvent” value ([2]; water added to MeOH solution) was “transformed to amorphous”. The solubility ([3]; 50% EtOH (aq), aqueous with cosolvent or surfactant or cyclodextrin) was less than 990 µg/mL, the “Solubility (mg/ml)” value ([3]; ACN) was 6.17~18.5 mg/ml and the solubility ([3]; EtOH, organic solvent or mixture) was 2100 to 3150 µg/mL (≈ 4.47 to 6.71 mM). It also gave a solubility ([3]; THF, organic solvent or mixture) of less than 1140 µg/mL, a solubility ([3]; acetone, organic solvent or mixture) of 2220 to 3330 µg/mL (≈ 4.73 to 7.09 mM) and a solubility ([3]; acetonitrile, organic solvent or mixture, ACN) of 6170 to 18500 µg/mL (≈ 13.1 to 39.4 mM). The solubility ([3]; ethyl acetate, organic solvent or mixture) was less than 1800 µg/mL, the solubility ([3]; heptane, organic solvent or mixture) was less than 1430 µg/mL and the solubility ([3]; methanol, organic solvent or mixture, MeOH) was greater than 17000 µg/mL. The solubility ([3]; water) was less than 1080 µg/mL, the “Solid form after evaporation” value ([4]; ACN) was “Amorphous” and the “Solid form after evaporation” value ([4]; Acetone) was “Amorphous”. The “Solid form after evaporation” value ([4]; EtOH) was “Amorphous”, the “Solid form after evaporation” value ([4]; MeOH) was “Amorphous” and the “Crystal form after equilibration with solvent” value ([5]; 25° C. and 50° C., 1 and 7 days) was “not changed”. For the same molecule, the Slurry solid form ([5]; 50% EtOH (aq), 25° C.-1 day) was “Crystal, no change”, the Slurry solid form ([5]; 50% EtOH (aq), 25° C.-7 day) was “Crystal, no change” and the Slurry solid form ([5]; 50% EtOH (aq), 50° C.-1 day) was “partially crystalline”. The Slurry solid form ([5]; ACN, 25° C.-1 day) was “Crystal, no change”, the Slurry solid form ([5]; ACN, 25° C.-7 day) was “Crystal, no change” and the Slurry solid form ([5]; ACN, 50° C.-1 day) was “Crystal, no change”. The Slurry solid form ([5]; Acetone, 25° C.-1 day) was “Crystal, no change”, the Slurry solid form ([5]; Acetone, 25° C.-7 day) was “Crystal, no change” and the Slurry solid form ([5]; Acetone, 50° C.-1 day) was “Crystal, no change”. The Slurry solid form ([5]; EtOAc, 25° C.-1 day) was “Crystal, no change”, the Slurry solid form ([5]; EtOAc, 25° C.-7 day) was “Crystal, no change” and the Slurry solid form ([5]; EtOAc, 50° C.-1 day) was “Crystal, no change”. The Slurry solid form ([5]; EtOH, 25° C.-1 day) was “Crystal, no change”, the Slurry solid form ([5]; EtOH, 25° C.-7 day) was “Crystal, no change” and the Slurry solid form ([5]; EtOH, 50° C.-1 day) was “Crystal, no change”. For the same molecule, the Slurry solid form ([5]; IPA, 25° C.-1 day) was “Crystal, no change”, the Slurry solid form ([5]; IPA, 25° C.-7 day) was “Crystal, no change” and the Slurry solid form ([5]; MeOH, 25° C.-1 day) was “Crystal, no change”. The Slurry solid form ([5]; MeOH, 25° C.-7 day) was “Crystal, no change”, the Slurry solid form ([5]; MeOH, 50° C.-1 day) was “Clear solution” and the Slurry solid form ([5]; THF, 25° C.-1 day) was “Crystal, no change”. The Slurry solid form ([5]; THF, 25° C.-7 day) was “Crystal, no change”, the Slurry solid form ([5]; THF, 50° C.-1 day) was “Crystal, no change” and the Slurry solid form ([5]; Water, 25° C.-1 day) was “Crystal, no change”. The Slurry solid form ([5]; Water, 25° C.-7 day) was “Crystal, no change” and the Slurry solid form ([5]; Water, 50° C.-1 day) was “partially crystalline”.
